Measurements published in patent publication US20240018207A1, “INTERFERON TAU FC-FUSION PROTEINS AND METHODS FOR TREATING CORONAVIRUS INFECTIONS” (Southlake Pharmaceuticals, Inc., priority 2020, published 2024).

Experiments:
[1] = tested on: SARS CoV-2 (USA_WA1/2020); assay: microbe, parasite or virus in culture; format: cell-based; details: Severe acute respiratory syndrome coronavirus 2, Vero C1008; SARS-CoV-2 CPE assay, reference compounds
hCoV-229E = hCoV-229E CPE assay in MRC5 cells; format: cell-based
Procedure: The method of this CPE assay is as follows: In 96-well plates, MRC5 cells were seeded at an appropriate density and cultured at 37° C. and 5% CO2 overnight. […] Then medium in each well was replenished with medium containing serially diluted samples and virus. […] Cytotoxicity of the compounds was assessed under the same conditions, but without virus infection, in parallel. Cell viability was measured by CellTiter Glo following the manufacturer's manual. IC50 and CC50 values were calculated with GraphPad Prism software.

in vitro = details: human

SMILES: CCC(CC)COC(=O)[C@H](C)N[P@](=O)(OC[C@H]1O[C@@](C#N)(c2ccc3c(N)ncnn23)[C@H](O)[C@@H]1O)Oc1ccccc1 [Remdesivir]
- IC50 [1]: 3.9 µM
- Selectivity Index (CC50/IC50) (Based upon nM) (hCoV-229E; HCoV-229E CPE assay): 1508.76
- IC50 (hCoV-229E; Human coronavirus 229E, MRC5, 72 h, read-out: Antiviral IC50): 0.0177 µM
- CC50 (in vitro): 26.7 µM
